# Patent US9260417B2, “Therapeutic methods and compositions involving allosteric kinase inhibition” (AMITECH THERAPEUTIC SOLUTIONS, INC., priority 2010, dated 2016)
# Legend:
# AMPK-alpha1 = AMPK-alpha1 (Homo sapiens (Human), UniProt Q13131); assay: KINOMEscan competitive binding assay; details: 10 uM
# Excerpt: (§1) In vitro kinase screen and competitive binding assay. Sorafenib as well as test compounds were submitted to Invitrogen and screened using their SelectScreen™ Profiling Service.
# BRAF(V600E) = BRAF(V600E) (Homo sapiens (Human), UniProt P15056, V600E); assay: KINOMEscan competitive binding assay; details: 10 uM
# Excerpt: as §1
# CDK3 = CDK3 (Homo sapiens (Human), UniProt Q00526); assay: KINOMEscan competitive binding assay; details: 10 uM
# Excerpt: as §1
# CLK2 = CLK2 (Homo sapiens (Human), UniProt P49760); assay: KINOMEscan competitive binding assay; details: 10 uM
# Chain of CLK2 (P49760 whole entry): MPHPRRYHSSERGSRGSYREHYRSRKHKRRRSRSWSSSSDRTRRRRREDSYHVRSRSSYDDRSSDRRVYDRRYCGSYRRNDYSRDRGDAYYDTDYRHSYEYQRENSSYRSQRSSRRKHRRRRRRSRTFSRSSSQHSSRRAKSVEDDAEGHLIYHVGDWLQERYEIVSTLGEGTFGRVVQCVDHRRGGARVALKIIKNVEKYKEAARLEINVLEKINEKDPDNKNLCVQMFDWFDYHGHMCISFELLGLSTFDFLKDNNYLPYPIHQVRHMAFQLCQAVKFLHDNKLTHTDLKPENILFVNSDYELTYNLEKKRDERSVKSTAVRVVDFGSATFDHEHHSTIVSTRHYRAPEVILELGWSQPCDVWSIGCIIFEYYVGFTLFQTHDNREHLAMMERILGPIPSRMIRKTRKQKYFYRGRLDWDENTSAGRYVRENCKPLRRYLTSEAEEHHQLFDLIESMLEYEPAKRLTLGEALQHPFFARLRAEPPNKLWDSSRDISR
# Excerpt: as §1
# EPHA2 = EPHA2 (Homo sapiens (Human), UniProt P29317); assay: KINOMEscan competitive binding assay; details: 10 uM
# Excerpt: as §1
# ERK2 = ERK2 (Homo sapiens (Human), UniProt P28482); assay: KINOMEscan competitive binding assay; details: 10 uM
# Chain of ERK2 (P28482 whole entry): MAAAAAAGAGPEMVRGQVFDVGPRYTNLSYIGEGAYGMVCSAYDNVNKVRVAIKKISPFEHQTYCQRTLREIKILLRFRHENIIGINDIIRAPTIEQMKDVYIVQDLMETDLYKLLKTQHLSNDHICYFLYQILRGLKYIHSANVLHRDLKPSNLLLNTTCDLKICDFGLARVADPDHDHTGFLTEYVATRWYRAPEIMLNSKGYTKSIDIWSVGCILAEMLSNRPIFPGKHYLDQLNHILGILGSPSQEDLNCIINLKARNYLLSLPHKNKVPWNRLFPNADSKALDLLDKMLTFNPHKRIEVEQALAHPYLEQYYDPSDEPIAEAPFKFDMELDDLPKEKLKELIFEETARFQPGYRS
# Excerpt: as §1
# FLT3(N841I) = FLT3(N841I) (Homo sapiens (Human), UniProt P36888, N841I); assay: KINOMEscan competitive binding assay; details: 10 uM
# Excerpt: as §1
# FLT4 = FLT4 (Homo sapiens (Human), UniProt P35916); assay: KINOMEscan competitive binding assay; details: 10 uM
# Excerpt: as §1
# GSK3B = GSK3B (Homo sapiens (Human), UniProt P49841); assay: KINOMEscan competitive binding assay; details: 10 uM
# Chain of GSK3B (P49841 whole entry): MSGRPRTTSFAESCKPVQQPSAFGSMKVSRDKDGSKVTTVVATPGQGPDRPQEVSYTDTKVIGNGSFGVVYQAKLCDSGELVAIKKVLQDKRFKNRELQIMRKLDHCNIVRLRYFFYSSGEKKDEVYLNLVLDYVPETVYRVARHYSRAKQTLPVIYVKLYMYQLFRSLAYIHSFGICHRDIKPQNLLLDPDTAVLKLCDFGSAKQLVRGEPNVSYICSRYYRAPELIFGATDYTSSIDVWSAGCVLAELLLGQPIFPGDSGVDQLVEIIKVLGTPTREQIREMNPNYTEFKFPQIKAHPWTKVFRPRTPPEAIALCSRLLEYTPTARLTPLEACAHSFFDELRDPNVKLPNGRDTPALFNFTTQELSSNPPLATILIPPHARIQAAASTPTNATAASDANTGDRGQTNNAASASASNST
# Excerpt: as §1
# INSR = INSR (Homo sapiens (Human), UniProt P06213); assay: KINOMEscan competitive binding assay; details: 10 uM
# Excerpt: as §1
# KIT(D616V) = assay: KINOMEscan competitive binding assay; details: 10 uM
# Excerpt: as §1
# KIT(V559D) = KIT(V559D) (Homo sapiens (Human), UniProt P10721, V559D); assay: KINOMEscan competitive binding assay; details: 10 uM
# Chain of KIT(V559D) (P10721 26-976 V559D): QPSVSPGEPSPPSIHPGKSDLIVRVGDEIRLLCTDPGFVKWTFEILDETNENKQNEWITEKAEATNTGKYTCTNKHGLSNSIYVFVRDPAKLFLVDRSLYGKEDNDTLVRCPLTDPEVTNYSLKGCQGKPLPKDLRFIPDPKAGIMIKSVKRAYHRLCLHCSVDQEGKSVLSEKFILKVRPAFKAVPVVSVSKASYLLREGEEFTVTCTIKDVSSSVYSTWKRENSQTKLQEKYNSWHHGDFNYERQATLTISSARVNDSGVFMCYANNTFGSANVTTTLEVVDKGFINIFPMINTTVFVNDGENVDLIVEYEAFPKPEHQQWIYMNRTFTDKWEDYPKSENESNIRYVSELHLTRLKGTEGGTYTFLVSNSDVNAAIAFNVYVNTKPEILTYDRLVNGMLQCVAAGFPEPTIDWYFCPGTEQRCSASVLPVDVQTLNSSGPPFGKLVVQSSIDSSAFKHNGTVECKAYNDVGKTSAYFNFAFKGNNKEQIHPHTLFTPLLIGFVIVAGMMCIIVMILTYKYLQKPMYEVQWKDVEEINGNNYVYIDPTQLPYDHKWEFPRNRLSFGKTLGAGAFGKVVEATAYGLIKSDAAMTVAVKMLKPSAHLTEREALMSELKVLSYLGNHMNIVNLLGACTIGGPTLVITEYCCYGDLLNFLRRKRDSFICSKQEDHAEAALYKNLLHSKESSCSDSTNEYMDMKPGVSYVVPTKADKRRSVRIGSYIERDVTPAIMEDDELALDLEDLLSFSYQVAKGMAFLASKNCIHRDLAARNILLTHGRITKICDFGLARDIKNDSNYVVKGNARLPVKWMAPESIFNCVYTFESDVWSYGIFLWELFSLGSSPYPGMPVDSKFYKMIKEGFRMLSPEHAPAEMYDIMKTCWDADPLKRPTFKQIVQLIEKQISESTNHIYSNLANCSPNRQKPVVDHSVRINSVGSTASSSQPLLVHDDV
# Excerpt: as §1
# KIT(V559D, T670I) = KIT(V559D, T670I) (Homo sapiens (Human), UniProt P10721, T670I/V559D); assay: KINOMEscan competitive binding assay; details: 10 uM
# Chain of KIT(V559D, T670I) (P10721 26-976 V559D/T670I): as the sequence (P10721 26-976 V559D) above, with T645I counted along it
# Excerpt: as §1
# LKB1 = LKB1 (Homo sapiens (Human), UniProt Q15831); assay: KINOMEscan competitive binding assay; details: 10 uM
# Chain of LKB1 (Q15831 whole entry): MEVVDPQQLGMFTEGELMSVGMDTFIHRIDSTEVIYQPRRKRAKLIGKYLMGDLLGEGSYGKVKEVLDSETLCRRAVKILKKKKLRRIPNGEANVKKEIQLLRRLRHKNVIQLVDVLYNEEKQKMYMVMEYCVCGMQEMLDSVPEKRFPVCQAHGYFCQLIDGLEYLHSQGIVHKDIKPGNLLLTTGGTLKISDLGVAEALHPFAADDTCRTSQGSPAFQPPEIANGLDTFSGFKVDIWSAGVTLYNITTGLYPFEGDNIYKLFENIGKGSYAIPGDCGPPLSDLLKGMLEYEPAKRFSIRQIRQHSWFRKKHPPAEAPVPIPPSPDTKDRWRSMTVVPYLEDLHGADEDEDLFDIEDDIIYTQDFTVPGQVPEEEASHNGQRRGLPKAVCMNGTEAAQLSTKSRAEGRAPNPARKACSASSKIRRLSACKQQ
# Excerpt: as §1
# MEK1 = MEK1 (Homo sapiens (Human), UniProt Q02750); assay: KINOMEscan competitive binding assay; details: 10 uM
# Chain of MEK1 (Q02750 whole entry): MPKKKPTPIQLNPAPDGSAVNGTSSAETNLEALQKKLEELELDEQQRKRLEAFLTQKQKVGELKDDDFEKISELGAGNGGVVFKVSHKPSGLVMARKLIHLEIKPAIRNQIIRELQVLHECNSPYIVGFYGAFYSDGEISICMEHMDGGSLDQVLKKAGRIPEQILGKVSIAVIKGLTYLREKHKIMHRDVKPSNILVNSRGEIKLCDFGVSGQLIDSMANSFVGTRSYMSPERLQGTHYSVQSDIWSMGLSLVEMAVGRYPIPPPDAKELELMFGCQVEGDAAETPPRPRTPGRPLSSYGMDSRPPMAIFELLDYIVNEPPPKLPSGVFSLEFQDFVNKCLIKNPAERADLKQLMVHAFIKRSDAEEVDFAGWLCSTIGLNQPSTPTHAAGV
# Excerpt: as §1
# MET = MET (Homo sapiens (Human), UniProt P08581); assay: KINOMEscan competitive binding assay; details: 10 uM
# Excerpt: as §1
# RIOK3 = RIOK3 (Homo sapiens (Human), UniProt O14730); assay: KINOMEscan competitive binding assay; details: 10 uM
# Excerpt: as §1
# TIE1 = TIE1 (Homo sapiens (Human), UniProt P35590); assay: KINOMEscan competitive binding assay; details: 10 uM
# Chain of TIE1 (P35590 22-1138): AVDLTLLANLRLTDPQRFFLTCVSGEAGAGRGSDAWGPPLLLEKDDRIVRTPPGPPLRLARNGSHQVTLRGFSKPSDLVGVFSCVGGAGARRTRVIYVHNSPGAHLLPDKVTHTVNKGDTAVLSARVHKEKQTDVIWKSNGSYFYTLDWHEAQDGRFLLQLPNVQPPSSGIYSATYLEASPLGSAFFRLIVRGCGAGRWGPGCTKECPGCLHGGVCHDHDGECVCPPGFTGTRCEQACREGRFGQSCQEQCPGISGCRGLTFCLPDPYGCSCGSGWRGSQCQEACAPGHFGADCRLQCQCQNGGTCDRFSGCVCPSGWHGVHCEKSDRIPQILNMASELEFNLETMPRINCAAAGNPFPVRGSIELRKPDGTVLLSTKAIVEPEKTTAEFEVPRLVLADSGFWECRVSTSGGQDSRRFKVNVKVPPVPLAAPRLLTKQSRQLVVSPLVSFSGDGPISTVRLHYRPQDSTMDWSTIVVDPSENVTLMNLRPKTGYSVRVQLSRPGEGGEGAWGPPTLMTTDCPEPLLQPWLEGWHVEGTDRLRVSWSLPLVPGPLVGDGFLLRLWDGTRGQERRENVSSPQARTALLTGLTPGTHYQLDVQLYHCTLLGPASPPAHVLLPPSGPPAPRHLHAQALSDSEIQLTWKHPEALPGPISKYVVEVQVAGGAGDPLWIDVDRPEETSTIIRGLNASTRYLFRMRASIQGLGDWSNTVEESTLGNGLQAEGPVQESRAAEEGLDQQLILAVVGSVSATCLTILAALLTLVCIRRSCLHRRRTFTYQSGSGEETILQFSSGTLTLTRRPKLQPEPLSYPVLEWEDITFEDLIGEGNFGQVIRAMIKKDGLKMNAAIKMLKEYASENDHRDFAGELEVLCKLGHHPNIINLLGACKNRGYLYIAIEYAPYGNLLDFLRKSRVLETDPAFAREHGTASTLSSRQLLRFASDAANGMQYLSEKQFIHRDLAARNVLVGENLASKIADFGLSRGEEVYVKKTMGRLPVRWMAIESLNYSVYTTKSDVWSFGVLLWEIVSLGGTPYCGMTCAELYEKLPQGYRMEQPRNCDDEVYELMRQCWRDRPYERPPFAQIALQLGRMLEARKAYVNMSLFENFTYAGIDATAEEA
# Excerpt: as §1
# TRKA = TRKA (Homo sapiens (Human), UniProt P04629); assay: KINOMEscan competitive binding assay; details: 10 uM
# Excerpt: as §1
# CDC2L1 = CDC2L1 (Homo sapiens (Human), UniProt P21127); assay: KINOMEscan competitive binding assay; details: 10 uM
# PAK1 = PAK1 (Homo sapiens (Human), UniProt Q13153); assay: KINOMEscan competitive binding assay; details: 10 uM
# Experimental: For the competitive binding assay, test compounds were screened at 10 μM against 70 diverse kinase targets for competitive binding using the KINOMEscan™ technology (Ambit Biosciences) (Karaman, et al. (2008) Nature biotechnology 26:127-132). 11-point Kd curves were determined for hits identified during the initial screen.
# CT26 = assay: Tumor cell viability; assay type: cell-based; details: Colon Carcinoma CT26
# M21 = assay: Tumor cell viability; assay type: cell-based; details: Melanoma M21
# B-RAF/C-RAF dimerization = B-RAF/C-RAF dimerization (Homo sapiens (Human), UniProt P15056); assay: B-RAF/C-RAF dimerization in XPA-1 pancreatic cancer cells (immunoprecipitation/Western); assay type: cell-based; details: XPA-1 cells
# [1] = test system: bFGF induced angiogenesis; assay: Mouse Matrigel model of angiogenesis; assay type: in vivo, mice; details: 50 mg/kg, ip, bid
# Experimental: On day 5 after implantation of the Matrigel, the mice were administered FITC-lectin to label blood vessels. The plugs were removed and visualized by confocal microscopy followed by homogenization and quantification of total FITC. Error bars represent ±SEM. […] Thin sections (5 μm) of the Matrigel plugs were immunostained for vessels with an EC mix (anti-Flk, anti-CD31, anti-VE-Cadherin, and anti-endoglin). […] (FIG. 9C) 6 inhibits phosphorylation of PDGFRβY751 in stromal cells. Thin sections (5 μm) of the Matrigel plugs were immunostained for pericytes and fibroblast with α-smooth muscle actin and for phospho-PDGFRβ Y751 levels. ECs were immunostained with anti-CD31. […] Thin sections (5 μm) of the Matrigel plugs were immunostained for vessels with an EC mix (described as in 9B). TOPRO-3 was used as a nuclear counterstain and TUNEL staining was used to detect apoptotic nuclei. Images were taken using confocal laser scanning microscopy. […]
# Female Nu/Nu mice were implanted with growth-factor depleted Matrigel (BD Biosciences, San Jose, Calif.) in the flank containing either PBS or 200 ng of bFGF (Peprotech). […] Five days after matrigel implantation, mice were tail-vein injected with FITC-lectin and plugs were harvested and imaged by confocal microscopy and quantified after homogenization in ice-cold PBS using a fluorescent microplate reader (Tecan Systems, Inc., San Jose, Calif.). […]
# Chain of AMPK-alpha1 (Q13131 whole entry): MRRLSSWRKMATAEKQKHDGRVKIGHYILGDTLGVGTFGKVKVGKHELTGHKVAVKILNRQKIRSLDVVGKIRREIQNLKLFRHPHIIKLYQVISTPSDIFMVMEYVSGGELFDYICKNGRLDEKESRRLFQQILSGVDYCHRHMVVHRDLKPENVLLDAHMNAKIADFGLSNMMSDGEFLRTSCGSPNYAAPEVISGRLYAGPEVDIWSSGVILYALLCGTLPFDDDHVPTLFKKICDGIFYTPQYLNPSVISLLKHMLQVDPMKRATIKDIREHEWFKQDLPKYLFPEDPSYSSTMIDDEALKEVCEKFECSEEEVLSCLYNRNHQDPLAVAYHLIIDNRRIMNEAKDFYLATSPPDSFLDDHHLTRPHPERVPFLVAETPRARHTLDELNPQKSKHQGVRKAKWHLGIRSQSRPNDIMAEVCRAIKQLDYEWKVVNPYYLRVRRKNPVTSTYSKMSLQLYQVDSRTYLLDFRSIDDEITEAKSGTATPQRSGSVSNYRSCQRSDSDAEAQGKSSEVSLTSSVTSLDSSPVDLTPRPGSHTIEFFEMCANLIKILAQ
smiles,measurement,setting,value
CSc1nc(N)cc(Oc2ccc(-c3nnc(Nc4cccc(C(F)(F)F)c4)[nH]3)cc2)n1 [Compound 6],% Control,AMPK-alpha1,72%
same,% Control,BRAF(V600E),98%
same,% Control,CDK3,91%
same,% Control,CLK2,84%
same,% Control,EPHA2,100%
same,% Control,ERK2,90%
same,% Control,FLT3(N841I),3.1%
same,% Control,FLT4,100%
same,% Control,GSK3B,90%
same,% Control,INSR,100%
same,% Control,KIT(D616V),76%
same,% Control,KIT(V559D),0.1%
same,% Control,"KIT(V559D, T670I)",56%
same,% Control,LKB1,100%
same,% Control,MEK1,84%
same,% Control,MET,94%
same,% Control,RIOK3,100%
same,% Control,TIE1,76%
same,% Control,TRKA,64%
same,% Control,CDC2L1,70%
same,% Control,PAK1,100%
same,EC50,CT26,710 nM
same,EC50,M21,450 nM
same,RAF dimerization and pS338-CRAF,B-RAF/C-RAF dimerization,prevent RAF dimerization and pS338-CRAF
same,p-ERK staining in endothelial cells of Matrigel plugs,[1],suppression in the p-ERK staining
same,p-PDGFRβY751 signal in stromal compartment of Matrigel plugs,[1],complete suppression
